In EP1311531B1, “STEROID DERIVED ANTIBIOTICS” (Brigham Young University, priority 2000, dated 2002):
Values after ≈ are worked out from the molar mass of the structure shown. Like-named read-outs stand apart in the source and are kept apart here.

Key:
[1] = system: Staphylococcus aureus ATCC 25923; assay: MIC and MBC measurement; type: cell-based; conditions: ATCC25923, Table 10, Staphylococcus aureus ATCC 25923; for MIC: read-out: MIC
Text: (§1) General: Microorganisms. Reference strains were purchased from the American Type Culture Collection (Rockville, MD) or Bactrol disks from Difeo Laboratories (Detroit, MI). The following specific ATCC strains were used: 10798 Escherichia coli, 25922 Escherichia coli, 13883 Klebsiella pneumoniae, 27853 Pseudomonas aeruginosa, 14028 Salmonella typhimurium, 29212 Enterococcus faecalis, 25923 Staphylococcus aureus, 19615 Streptococcus pyogenes, and 90028 Candida albicans. Bacterial strains were maintained on Mueller-Hinton agar plates, and Candida albicans was maintained on Sabouraud Dextrose agar plates.
(§2) Tryptic soy broth (TSB) was made by dissolving 27.5 grams of tryptic soy broth without dextrose (DIFCO Laboratories) in 1 liter of deionized water and sterilizing at 121 °C for 15 minutes. Solid agar (TSA) plates were made by dissolving 6.4 grams of tryptic soy broth and 12 grams of agar (purified grade, Fischer Scientific) in 800 mL of deionized water and sterilizing at 121 °C for 20 minutes. Aliquots (20 mL) of the homogeneous solution were then poured in sterile plastic petri dishes (100 x 15 mm, Fisher Scientific). Solutions of compounds were made by dissolving the HCl salt of the respective compound into an appropriate amount of deionized and sterilized water followed by microfiltration.
(§3) Aliquots of 1 mL of the suspension were added to test tubes containing 1 mL TSB and incrementally varied concentrations of cholic acid derivatives and/or erythromycin or novobiocin. In the sensitization experiments, erythromycin or novobiocin were added 15 minutes later than the cholic acid derivatives. The samples were subjected to stationary incubation at 37°C for 24 hours. Sample turbidity was determined by measuring absorption at 760 nm (HP 8453 UV-Visible Chemstation, Hewlett Packard). Additionally, an alliquot from each of the samples showing no measurable turbidity was subcultured on TSA plates (alliquots were diluted to provide fewer than 300 CFU). Colonies that grew on the subculture after overnight incubation were counted and the number of CFU/mL in the samples were calculated. The calculated values were compared to the number of CFU/mL in the original inoculum. […]

[2] = system: Escherichia coli ATCC 25922; assay: MIC and MBC measurement; type: cell-based; conditions: Escherichia coli; for MIC: read-out: MIC
Text: as §1, §2, §3

[3] = system: Salmonella typhimurium ATCC 14028; assay: Sensitization to erythromycin, novobiocin or rifampicin (permeabilization, FIC); type: cell-based; conditions: Table 13; with rifampicin (order of b151); Salmonella typhimurium ATCC 14028^b (footnote b not given)
[4] = system: Salmonella typhimurium ATCC 14028; assay: as above; type: cell-based
Experimental: (§4) FICs can be performed by checkerboard titrations of compounds in one dimension of a microtiter plate, and of antibiotics in the other dimension, for example. The FIC is calculated by looking at the impact of one antibiotic on the MIC of the other and vice versa. […] Preferably, an FIC of less than 0.5 is obtained for synergism. As used herein, FIC can be determined as follows: FIC = (MIC(compound in combination))/(MIC(compound alone)) + (MIC(antibiotic in combination))/(MIC(antibiotic alone)) [formula]
(§5) Aliquots of 1 mL of the suspension were added to test tubes containing 1 mL TSB and incrementally varied concentrations of cholic acid derivatives and/or erythromycin or novobiocin. In the sensitization experiments, erythromycin or novobiocin were added 15 minutes later than the cholic acid derivatives. The samples were subjected to stationary incubation at 37°C for 24 hours. Sample turbidity was determined by measuring absorption at 760 nm (HP 8453 UV-Visible Chemstation, Hewlett Packard). Additionally, an alliquot from each of the samples showing no measurable turbidity was subcultured on TSA plates (alliquots were diluted to provide fewer than 300 CFU). Colonies that grew on the subculture after overnight incubation were counted and the number of CFU/mL in the samples were calculated. The calculated values were compared to the number of CFU/mL in the original inoculum.
(§6) Concentrations of 0.5, 1.0 or 3.0 µg/mL of these antibiotics were used, and the concentrations of the cholic acid derivatives required to inhibit bacterial growth of Gram-negative strains were determined.

[5] = system: Pseudomonas aeruginosa ATCC 27853; assay: as above; type: cell-based; conditions: for MBC: Pseudomonas aeruginosa; for MBC / concentration required to lower the MIC of erythromycin from 240 µg/mL to 5 µg/mL: Table 7, with erythromycin; for MBC / concentration required to lower the MIC of erythromycin from 240 µg/mL to 5 µg/mL / concentration required to lower the MIC of novobiocin from >500 µg/mL to 1 µg/mL: P. aureginosa (ATCC 27853); for concentration required to lower the MIC of novobiocin from >500 µg/mL to 1 µg/mL: Table 8, with novobiocin
Experimental: as §4, §5, §6

[6] = system: outer membrane of Gram-negative bacteria; assay: Luciferin/luciferase luminescence assay of membrane permeabilization; type: cell-based, E. coli; conditions: Escherichia coli; permeabilization of the outer membrane allowing luciferin to enter the cell; read-out: half maximum luminescence
Experimental: Using a technique described by J. M. Shupp, S. E. Travis, L. B. Price, R. F. Shand, P. Keim, RAPID BACTERIAL PERMEABILIZATION REAGENT USEFUL FOR ENZYME ASSAYS, Biotechniques, 1995, vol.
In this assay, E. coli containing an inducible luciferase coding plasmid was incubated with the inducing agent […], then treated with a lysis buffer containing either PMB or one of the cholic acid derivatives, and Triton X-100. Luciferin and ATP were then added. […] The concentrations of the membrane disrupting agents (PMB and the cholic acid derivatives) were varied, and the resulting luminescence was measured.

[7] = ATCC25922, Table 4, E. coli (ATCC 25922)
[8] = ATCC25922, Table 10, Escherichia coli ATCC 25922
[9] = Table 11, with erythromycin (order of b151)
[10] = Table 12, with novobiocin (order of b151)
[11] = Table 12, with novobiocin (order of b151), Pseudomonas aeruginosa ATCC 27853
[12] = Table 13, with rifampicin (order of b151), Pseudomonas aeruginosa ATCC 27853^b (footnote b not given)

SMILES	MBC [1] [µg/mL]	MIC [1] [µg/mL]	MBC [2, 7] [µg/mL]	MIC [2, 7] [µg/mL]	MBC [2, 8] [µg/mL]	MIC [2, 8] [µg/mL]	FIC [3]	concentration required for bacterial growth inhibition [3] [µg/mL]	FIC [4, 9]	concentration required for bacterial growth inhibition [4, 9] [µg/mL]	FIC [4, 10]	concentration required for bacterial growth inhibition [4, 10] [µg/mL]	FIC ([5]; ATCC27853)	concentration required for bacterial growth inhibition ([5]; ATCC27853) [µg/mL]	MBC ([5]; ATCC27853) [µg/mL]	concentration required to lower the MIC of erythromycin from 240 µg/mL to 5 µg/mL [5] [µg/mL]	concentration required to lower the MIC of novobiocin from >500 µg/mL to 1 µg/mL [5] [µg/mL]	concentration required for bacterial growth inhibition [5, 11] [µg/mL]	FIC [5, 12]	EC50 [6] [µg/mL]
C[C@H](CCCN(C)Cc1ccccc1)[C@H]1CC[C@H]2[C@@H]3[C@H](OCCN)C[C@@H]4C[C@H](OCCN)CC[C@]4(C)[C@H]3C[C@H](OCCN)[C@]12C [Compound 1]	5.7 (≈ 9.09 µM)	3.1 (≈ 4.94 µM)	40 (≈ 63.8 µM)	25 (≈ 39.9 µM)	22 (≈ 35.1 µM)	22 (≈ 35.1 µM)	0.089	0.84	0.19	3.6	0.22	4.4	0.29	6.6	45	8	6	3.9	0.096	–
C[C@H](CCCN(C)Cc1ccccc1)[C@H]1CC[C@H]2[C@@H]3[C@H](OCCCN)C[C@@H]4C[C@H](OCCCN)CC[C@]4(C)[C@H]3C[C@H](OCCCN)[C@]12C [Compound 2]	4.7 (≈ 7.02 µM)	1 (≈ 1.49 µM)	20 (≈ 29.9 µM)	10 (≈ 14.9 µM)	6.8 (≈ 10.2 µM)	5.1 (≈ 7.62 µM)	0.079	0.39	0.17	2.0	0.36	4.5	0.25	2.4	25	4	4	2.9	0.086	7 (≈ 10.5 µM)
C[C@H](CCCN(C)Cc1ccccc1)[C@H]1CC[C@H]2[C@@H]3[C@H](OCCCNC(=N)N)C[C@@H]4C[C@H](OCCCNC(=N)N)CC[C@]4(C)[C@H]3C[C@H](OCCCNC(=N)N)[C@]12C [Compound 5]	3.2 (≈ 4.02 µM)	0.6 (≈ 0.755 µM)	4 (≈ 5.03 µM)	2 (≈ 2.52 µM)	3.8 (≈ 4.78 µM)	1.4 (≈ 1.76 µM)	–	–	0.23	0.46	–	–	0.42	2.3	10	3	6	–	–	–
C[C@H](CCCO)[C@H]1CC[C@H]2[C@@H]3[C@H](OCCCN)C[C@@H]4C[C@H](OCCCN)CC[C@]4(C)[C@H]3C[C@H](OCCCN)[C@]12C [Compound 10]	9.2 (≈ 16.3 µM)	2 (≈ 3.53 µM)	–	–	40 (≈ 70.7 µM)	36 (≈ 63.6 µM)	0.063	0.55	0.037	0.87	0.052	1.8	0.13	2.1	–	7	–	5.3	0.083	33 (≈ 58.3 µM)
C[C@]12CC[C@@H](OCCCN)C[C@H]1C[C@@H](OCCCN)[C@@H]1[C@@H]2C[C@H](OCCCN)[C@]2(C)[C@@H](O)CC[C@@H]12 [Compound 106]	54 (≈ 109 µM)	8.6 (≈ 17.3 µM)	–	–	90 (≈ 182 µM)	80 (≈ 161 µM)	0.064	1.4	0.088	7.1	0.094	8.4	0.22	16	–	–	–	30	0.17	–
CCCOCCC[C@@H](C)[C@H]1CC[C@H]2[C@@H]3[C@H](OCCCN)C[C@@H]4C[C@H](OCCCN)CC[C@]4(C)[C@H]3C[C@H](OCCCN)[C@]12C [Compound 112]	4.2 (≈ 6.91 µM)	0.55 (≈ 0.905 µM)	–	–	7.4 (≈ 12.2 µM)	6.6 (≈ 10.9 µM)	0.051	0.10	0.019	0.20	0.015	0.39	0.59	1.0	–	–	–	0.72	0.15	–
